Publication PMC5827756, “Inhibition of Heat Shock proteins HSP90 and HSP70 induce oxidative stress, suppressing cotton fiber development” (Scientific Reports, 2018)

Biological target: T1, human HSP70 (Homo sapiens, UniProt P0DMV8)
T1 construct: gene HSPA1A
Test: citrate synthase thermoprotection (chaperone) assay, […] nm DTNB
Assay type: biochemical
Conditions: 0.5 µM porcine heart citrate synthase, 1.8 µM HSP, 43 °C, 50 mM HEPES pH 8.0; activity read at 25 °C; inhibitor concentration not stated

T1 sequence (P0DMV8 2-641): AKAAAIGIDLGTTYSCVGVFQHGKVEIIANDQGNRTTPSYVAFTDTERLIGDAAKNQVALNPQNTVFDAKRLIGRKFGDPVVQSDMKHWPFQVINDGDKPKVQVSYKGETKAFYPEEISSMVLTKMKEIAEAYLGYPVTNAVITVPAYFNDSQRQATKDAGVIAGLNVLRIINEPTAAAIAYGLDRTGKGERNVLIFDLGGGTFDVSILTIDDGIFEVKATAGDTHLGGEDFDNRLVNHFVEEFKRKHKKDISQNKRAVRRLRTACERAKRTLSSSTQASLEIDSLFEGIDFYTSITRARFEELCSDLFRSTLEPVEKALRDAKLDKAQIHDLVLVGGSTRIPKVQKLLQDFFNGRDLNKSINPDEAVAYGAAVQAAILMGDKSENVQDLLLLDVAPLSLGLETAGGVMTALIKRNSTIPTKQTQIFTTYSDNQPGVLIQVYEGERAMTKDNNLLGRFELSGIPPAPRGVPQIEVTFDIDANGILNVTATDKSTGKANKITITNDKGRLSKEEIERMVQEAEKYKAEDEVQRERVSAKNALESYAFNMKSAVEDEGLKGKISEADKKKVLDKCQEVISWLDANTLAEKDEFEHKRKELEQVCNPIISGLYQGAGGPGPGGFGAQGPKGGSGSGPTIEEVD

NS(=O)(=O)C#Cc1ccccc1 [Pif, pifithrin]
citrate synthase thermoprotection (chaperone) assay, 412 nm DTNB: Similarly, Pif also inhibits thermos-protection by HSP70
